Source: patent US11478451B1, “Macrocyclic chlorine substituted indole derivatives” (Bayer Aktiengesellschaft, priority 2017, dated 2022)
Structures can show the parent of a compound that is named as a salt. Where two headings read alike, the source gives them in different places. Values belong to the compound of their own block, whether it stands above or below them.

Tests used:
HMC-1-8 cells = assay: Antiproliferation assay (CellTiter-Glo, 72 h), HMC-1-8; assay type: cell-based; settings: IC50, median, HMC-1-8, 72 h, read-out: Antiproli HMC-1-8 [M] median
How it was run: (§1)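 Treated cells sat 72 h in a humidified 37 °C incubator, outer wells unused, before CellTiter-Glo reagent and a 10 min wait preceded luminescence reading; identical measurement of a parallel day 0 plate defined time zero.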

SUDHL10 cells [1] = assay: Induction of caspase-3/7 activity (Caspase-Glo 3/7), SUDHL10; assay type: cell-based; settings: EC50, median, SUDHL10, 3 h treatment
How it was run: (§2)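 Read-out: Caspase-Glo 3/7 signal, background-corrected against medium-only wells, taken after cells had been incubated with compounds for 3 h at 37 °C.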

SUDHL5 cells [2] = assay: Antiproliferation assay (CellTiter-Glo, 72 h), SUDHL5; assay type: cell-based; settings: IC50, median, SUDHL5, 72 h, read-out: Antiproli SUDHL5 [M] (median)
How it was run: as §1

AMO-1 cells = assay: Antiproliferation assay (CellTiter-Glo, 72 h), AMO-1; assay type: cell-based; settings: IC50, median, AMO-1, 72 h, read-out: Antiproli AMO-1 [M] median
How it was run: as §1

SUDHL5 cells [3] = assay: Induction of caspase-3/7 activity (Caspase-Glo 3/7), SUDHL5; assay type: cell-based; settings: EC50, median, SUDHL5, 3 h treatment
How it was run: as §2

SUDHL10 cells [4] = assay: Induction of cytotoxicity (CellTiter-Glo, 5 h), SUDHL10; settings: SUDHL10, 5 h
SUDHL5 cells [5] = assay: Induction of cytotoxicity (CellTiter-Glo, 5 h), SUDHL5; settings: SUDHL5, 5 h
[6] = Homo sapiens, SU-DHL10, 5 h, read-out: Cytotox SUDHL10 [M] (median), IC50, median
[7] = Homo sapiens, SU-DHL-5, 5 h, read-out: Cytotox SUDHL5 [M] (median), IC50, median

SMILES: CCc1c2c(nn1C)COCCC(F)(F)Cn1c(C(=O)O)c(CCCOc3cccc4cc(F)ccc34)c3ccc(Cl)c-2c31 (racemic) [Example 96, (rac)-4-chloro-3-ethyl-11,11-difluoro-7-{3-[(6-fluoronaphthalen-1-yl)oxy]propyl}-2-methyl-2,10,11,12,13,15-hexahydropyrazolo[4′,3′:9,10][1,6]oxazacycloundecino[8,7,6-hi]indole-8-carboxylic acid]
IC50 (HMC-1-8 cells; 72 h): 5.3e-06 M
EC50 (SUDHL10 cells [1]; Homo sapiens, SU-DHL10, 3 h): 0.21 µM
IC50 (SUDHL5 cells [2]; Homo sapiens, SU-DHL-5, 72 h): 3.1e-07 M
IC50 (AMO-1 cells; Homo sapiens, AMO1, 72 h): 4.9e-07 M
EC50 (SUDHL5 cells [3]; Homo sapiens, SU-DHL-5, 3 h): 0.48 µM
IC50 (SUDHL10 cells [4]; [6]): 3.5e-07 M
IC50 (SUDHL5 cells [5]; [7]): 4.7e-07 M

SMILES: Cc1c2c(nn1CCCN1CCN(C)CC1)COCCCCn1c(C(=O)O)c(CCCOc3cccc4ccccc34)c3ccc(Cl)c-2c31 (racemic) [Example 48, (rac)-4-chloro-3-methyl-2-[3-(4-methylpiperazin-1-yl)propyl]-7-{3-[(naphthalen-1-yl)oxy]propyl}-2,10,11,12,13,15-hexahydropyrazolo[4′,3′:9,10][1,6]oxazacycloundecino[8,7,6-hi]indole-8-carboxylic acid]
IC50 (HMC-1-8 cells; 72 h): 8.2e-07 M
EC50 (SUDHL10 cells [1]; Homo sapiens, SU-DHL10, 3 h): 0.4 µM
IC50 (SUDHL5 cells [2]; Homo sapiens, SU-DHL-5, 72 h): 2e-07 M
IC50 (AMO-1 cells; Homo sapiens, AMO1, 72 h): 1.8e-07 M
EC50 (SUDHL5 cells [3]; Homo sapiens, SU-DHL-5, 3 h): 0.16 µM
IC50 (SUDHL10 cells [4]; [6]): 3e-07 M
IC50 (SUDHL5 cells [5]; [7]): 1.8e-07 M

SMILES: CCc1c2c(nn1C)CN(C(=O)OCCOC)CCCCn1c(C(=O)O)c(CCCOc3cccc4cc(F)ccc34)c3ccc(Cl)c-2c31 [Example 134, (rac)-4-chloro-3-ethyl-7-{3-[(6-fluoronaphthalen-1-yl)oxy]propyl}-14-[(2-methoxyethoxy)carbonyl]-2-methyl-10,11,12,13,14,15-hexahydro-2H-pyrazolo[3′,4′:8,9][1,6]diazacycloundecino[10,11,1-hi]indole-8-carboxylic acid]
IC50 (HMC-1-8 cells; 72 h): 2.1e-06 M
EC50 (SUDHL10 cells [1]; Homo sapiens, SU-DHL10, 3 h): 0.24 µM
IC50 (SUDHL5 cells [2]; Homo sapiens, SU-DHL-5, 72 h): 2.3e-07 M
IC50 (AMO-1 cells; Homo sapiens, AMO1, 72 h): 3.4e-07 M
EC50 (SUDHL5 cells [3]; Homo sapiens, SU-DHL-5, 3 h): 0.13 µM
IC50 (SUDHL10 cells [4]; [6]): 3.4e-07 M
IC50 (SUDHL5 cells [5]; [7]): 1.8e-07 M

SMILES: CCc1c2c(nn1C)CCCN(CCCCO)CCn1c(C(=O)O)c(CCCOc3cccc4cc(F)ccc34)c3ccc(Cl)c-2c31 (racemic) [Example 122, (rac)-4-chloro-3-ethyl-7-{3-[(6-fluoro-1-naphthyl)oxy]propyl}-12-(4-hydroxybutyl)-2-methyl-10,11,12,13,14,15-hexahydro-2H-pyrazolo[3′,4′:8,9][1,4]diazacycloundecino[10,11,1-hi]indole-8-carboxylic acid]
IC50 (HMC-1-8 cells; 72 h): 6.6e-06 M
EC50 (SUDHL10 cells [1]; Homo sapiens, SU-DHL10, 3 h): 0.75 µM
IC50 (SUDHL5 cells [2]; Homo sapiens, SU-DHL-5, 72 h): 6.8e-07 M
IC50 (AMO-1 cells; Homo sapiens, AMO1, 72 h): 5.1e-07 M
EC50 (SUDHL5 cells [3]; Homo sapiens, SU-DHL-5, 3 h): 0.92 µM
IC50 (SUDHL10 cells [4]; [6]): 1.1e-06 M
IC50 (SUDHL5 cells [5]; [7]): 1.1e-06 M

SMILES: CCc1c2c(nn1C)CCCN(CCCCOC(C)=O)CCn1c(C(=O)O)c(CCCOc3cccc4cc(F)ccc34)c3ccc(Cl)c-2c31 (racemic) [Example 121, (rac)-12-(4-acetoxybutyl)-4-chloro-3-ethyl-7-{3-[(6-fluoro-1-naphthyl)oxy]propyl}-2-methyl-10,11,12,13,14,15-hexahydro-2H-pyrazolo[3′,4′:8,9][1,4]diazacycloundecino[10,11,1-hi]indole-8-carboxylic acid]
IC50 (HMC-1-8 cells; 72 h): 9.9e-06 M
EC50 (SUDHL10 cells [1]; Homo sapiens, SU-DHL10, 3 h): 1.7 µM
IC50 (SUDHL5 cells [2]; Homo sapiens, SU-DHL-5, 72 h): 9e-07 M
IC50 (AMO-1 cells; Homo sapiens, AMO1, 72 h): 1.3e-06 M
EC50 (SUDHL5 cells [3]; Homo sapiens, SU-DHL-5, 3 h): 1.2 µM
IC50 (SUDHL10 cells [4]; [6]): 1.9e-06 M
IC50 (SUDHL5 cells [5]; [7]): 1.3e-06 M

Now from value to compound, other results behind:

EC50 (SUDHL10 cells [1]; listed as 095): 0.87 µM
IC50 (SUDHL5 cells [2]; Homo sapiens, SU-DHL-5, 72 h): 1e-06 M
EC50 (SUDHL5 cells [3]; listed as 095): 0.55 µM
SMILES: Cc1c2c(nn1C)COCCC(F)(F)Cn1c(C(=O)O)c(CCCOc3cccc4ccccc34)c3ccc(Cl)c-2c31 [Example 95, 4-chloro-11,11-difluoro-2,3-dimethyl-7-{3-[(naphthalen-1-yl)oxy]propyl}-2,10,11,12,13,15-hexahydropyrazolo[4′,3′:9,10][1,6]oxazacycloundecino[8,7,6-hi]indole-8-carboxylic acid N-ethylethanamine salt]
IC50 (HMC-1-8 cells; listed as 095): 7.2e-06 M
IC50 (AMO-1 cells; Homo sapiens, AMO1, 72 h): 9.7e-07 M
IC50 (SUDHL10 cells [4]; read-out: Cytotox SUDHL10 [M] (median), IC50, median, listed as 095): 4.5e-07 M
IC50 (SUDHL5 cells [5]; read-out: Cytotox SUDHL5 [M] (median), IC50, median, listed as 095): 7.7e-07 M

EC50 (SUDHL10 cells [1]; Homo sapiens, SU-DHL10, 3 h): 1.1 µM
IC50 (SUDHL5 cells [2]; Homo sapiens, SU-DHL-5, 72 h): 2.2e-06 M
EC50 (SUDHL5 cells [3]; Homo sapiens, SU-DHL-5, 3 h): 0.47 µM
SMILES: CCc1c2c(nn1C)CCCN(CC(F)(F)C(F)F)CCn1c(C(=O)O)c(CCCOc3cccc4cc(F)ccc34)c3ccc(Cl)c-2c31 (racemic) [Example 123, (rac)-4-chloro-3-ethyl-7-{3-[(6-fluoro-1-naphthyl)oxy]propyl}-2-methyl-12-(2,2,3,3-tetrafluoropropyl)-10,11,12,13,14,15-hexahydro-2H-pyrazolo[3′,4′:8,9][1,4]diazacycloundecino[10,11,1-hi]indole-8-carboxylic acid]
IC50 (HMC-1-8 cells; 72 h): 3.1e-06 M
IC50 (AMO-1 cells; Homo sapiens, AMO1, 72 h): 7.7e-07 M
IC50 (SUDHL10 cells [4]; [6]): 1.2e-06 M
IC50 (SUDHL5 cells [5]; [7]): 6.6e-07 M

EC50 (SUDHL10 cells [1]; listed as 076): 0.26 µM
IC50 (SUDHL5 cells [2]; listed as 076): 3.2e-07 M
EC50 (SUDHL5 cells [3]; listed as 076): 0.24 µM
SMILES: CCc1c2c(nn1C)CN(CC(F)F)CCCCn1c(C(=O)O)c(CCCOc3cccc4cc(F)ccc34)c3ccc(Cl)c-2c31 (single isomer, unassigned; enantiomer 2) [Example 76, (−)-4-chloro-14-(2,2-difluoroethyl)-3-ethyl-7-{3-[(6-fluoronaphthalen-1-yl)oxy]propyl}-2-methyl-10,11,12,13,14,15-hexahydro-2H-pyrazolo[3′,4′:8,9][1,6]diazacycloundecino[10,11,1-hi]indole-8-carboxylic acid N-ethylethanamine salt (Enantiomer 2)]
IC50 (HMC-1-8 cells; listed as 076): 4.4e-06 M
IC50 (AMO-1 cells; listed as 076): 2.4e-07 M
IC50 (SUDHL10 cells [4]; read-out: Cytotox SUDHL10 [M] (median), IC50, median, listed as 076): 4e-07 M
IC50 (SUDHL5 cells [5]; read-out: Cytotox SUDHL5 [M] (median), IC50, median, listed as 076): 3e-07 M

EC50 (SUDHL10 cells [1]; Homo sapiens, SU-DHL10, 3 h): 1.4 µM
IC50 (SUDHL5 cells [2]; Homo sapiens, SU-DHL-5, 72 h): 7.8e-07 M
EC50 (SUDHL5 cells [3]; Homo sapiens, SU-DHL-5, 3 h): 0.16 µM
SMILES: CCc1c2c(nn1C)CCCN(C)CCn1c(C(=O)O)c(CCCOc3cccc4cc(F)ccc34)c3ccc(Cl)c-2c31 (racemic) [Example 115, (rac)-4-chloro-3-ethyl-7-{3-[(6-fluoronaphthalen-1-yl)oxy]propyl}-2,12-dimethyl-10,11,12,13,14,15-hexahydro-2H-pyrazolo[3′,4′:8,9][1,4]diazacycloundecino[10,11,1-hi]indole-8-carboxylic acid]
IC50 (HMC-1-8 cells; 72 h): 8e-06 M
IC50 (AMO-1 cells; Homo sapiens, AMO1, 72 h): 9.1e-07 M
IC50 (SUDHL10 cells [4]; [6]): 1.4e-06 M
IC50 (SUDHL5 cells [5]; [7]): 4.4e-07 M

EC50 (SUDHL10 cells [1]): 0.52 µM
IC50 (SUDHL5 cells [2]): 4.3e-07 M
EC50 (SUDHL5 cells [3]): 0.6 µM
SMILES: Cc1c2c(nn1C)COCC(F)(F)CCn1c(C(=O)O)c(CCCOc3cccc4ccccc34)c3ccc(Cl)c-2c31 (racemic) [Example 55, (rac)-4-chloro-12,12-difluoro-2,3-dimethyl-7-{3-[(naphthalen-1-yl)oxy]propyl}-2,10,11,12,13,15-hexahydropyrazolo[4′,3′:9,10][1,6]oxazacycloundecino[8,7,6-hi]indole-8-carboxylic acid]
IC50 (HMC-1-8 cells; 72 h): 2.2e-06 M
IC50 (AMO-1 cells): 1.4e-06 M
IC50 (SUDHL10 cells [4]; read-out: Cytotox SUDHL10 [M] (median), IC50, median): 7.4e-07 M
IC50 (SUDHL5 cells [5]; read-out: Cytotox SUDHL5 [M] (median), IC50, median): 6.7e-07 M

EC50 (SUDHL10 cells [1]; Homo sapiens, SU-DHL10, 3 h): 0.57 µM
IC50 (SUDHL5 cells [2]; Homo sapiens, SU-DHL-5, 72 h): 7.6e-07 M
EC50 (SUDHL5 cells [3]; Homo sapiens, SU-DHL-5, 3 h): 0.14 µM
SMILES: CCc1c2c(nn1C)COCC1(CCn3c(C(=O)O)c(CCCOc4cccc5ccccc45)c4ccc(Cl)c-2c43)CC1 (single isomer, unassigned; enantiomer 2) [Example 74, (+)-4′-chloro-3′-ethyl-2′-methyl-7′-{3-[(naphthalen-1-yl)oxy]propyl}-2′,10′,11′,15′-tetrahydro-13′H-spiro[cyclopropane-1,12′-pyrazolo[4′,3′:9,10][1,6]oxazacycloundecino[8,7,6-hi]indole]-8′-carboxylic acid-N-ethylethanamine salt (Enantiomer 2)]
IC50 (HMC-1-8 cells; 72 h): 9.4e-06 M
IC50 (AMO-1 cells; Homo sapiens, AMO1, 72 h): 1.3e-06 M
IC50 (SUDHL10 cells [4]; [6]): 4e-07 M
IC50 (SUDHL5 cells [5]; [7]): 4.1e-07 M

EC50 (SUDHL10 cells [1]; Homo sapiens, SU-DHL10, 3 h): 1.5 µM
IC50 (SUDHL5 cells [2]; Homo sapiens, SU-DHL-5, 72 h): 6.2e-07 M
EC50 (SUDHL5 cells [3]; Homo sapiens, SU-DHL-5, 3 h): 0.51 µM
SMILES: Cc1c2c(nn1C)CN(CC(F)(F)F)CCCCn1c(C(=O)O)c(CCCOc3cccc4cc(F)ccc34)c3ccc(Cl)c-2c31 (racemic) [Example 58, (rac)-4-chloro-7-{3-[(6-fluoronaphthalen-1-yl)oxy]propyl}-2,3-dimethyl-14-(2,2,2-trifluoroethyl)-10,11,12,13,14,15-hexahydro-2H-pyrazolo[3′,4′:8,9][1,6]diazacycloundecino[10,11,1-hi]indole-8-carboxylic acid]
IC50 (HMC-1-8 cells; 72 h): 5.8e-06 M
IC50 (AMO-1 cells; Homo sapiens, AMO1, 72 h): 1.7e-06 M
IC50 (SUDHL10 cells [4]; [6]): 2e-06 M
IC50 (SUDHL5 cells [5]; [7]): 8.4e-07 M
